Data taken from patent publication US9603862B2, “Activation and activators of SIRT5” (CORNELL UNIVERSITY, priority 2009, dated 2017).
Like-named read-outs stand apart in the source and are kept apart here.

Target: T1, SIRT5 (Homo sapiens, UniProt Q9NXA8)
T1 sequence (Q9NXA8 37-310): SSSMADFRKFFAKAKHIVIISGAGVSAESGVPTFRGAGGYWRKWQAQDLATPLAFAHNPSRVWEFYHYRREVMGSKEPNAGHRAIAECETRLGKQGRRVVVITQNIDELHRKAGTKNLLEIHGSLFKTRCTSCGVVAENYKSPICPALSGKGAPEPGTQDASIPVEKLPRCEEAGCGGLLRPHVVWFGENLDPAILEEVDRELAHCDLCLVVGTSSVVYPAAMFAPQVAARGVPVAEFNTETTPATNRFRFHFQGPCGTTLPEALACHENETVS
Test: SIRT5 deacetylation activation assay (radiolabelled NAD+, DEAE-Sephadex column, turnover with vs without activator)
Format: biochemical
Method: The reactions were processed using DEAE columns. […]
Reactions containing NAD^+ including [2,8A^−3H]-NAD^+, peptide substrate, with or without activator in 100 mM phosphate buffer (pH 7.5) were initiated by addition of SIRT5 enzyme to a concentration of 10 μM. Reactions were incubated at 37° C. for 1 h and quenched by addition of trifluoroacetic acid to pH 2. After centrifugation to remove the precipitates, reactions were loaded onto columns containing pre-equilibrated DEAE-Sephadex (equilibrated with 5 mM ammonium acetate pH 7). The reaction mixture was then eluted with eight fractions of 20 mM ammonium acetate pH 7 and three fractions of 300 mM ammonium acetate pH 7. The radioactivity contained in the eluents was then quantified by scintillation counter. Radiolabelled NAD^+ eluted in the 20 mM washes, while products ADPR and AADPR eluted in the 300 mM fractions. Radioactivity in the remaining NAD^+ fractions and the radioactivity in the product fractions were then converted to a turnover rate (1/s) by adjustment for specific radioactivity and enzyme concentration. The turnovers from the reaction with or without the activators were compared to show the percentage of activation.
Test compounds were assayed against SIRT5 as described in Example 1.

[1] = FIG. 4, 500 μM JB12, 500 μM NAD+, 1 mM of activator compound
[2] = FIG. 4, 500 μM JB12, 500 μM NAD+, 1 mM of activator compound, read-out: Km of activator for activation of SIRT5-catalyzed deacetylation
[3] = FIG. 3, varying concentrations of activator, 500 μM NAD+, 500 μM JB12, DEAE columns
[4] = FIG. 3, varying concentrations of activator, 500 μM NAD+, 500 μM JB12, DEAE columns, read-out: Km of activator for activation of SIRT5-catalyzed deacetylation (Michaelis Menten curve fitting)

SMILES: COB(OC)c1ccc[n+]([C@H]2CC(O)[C@@H](COP(=O)([O-])O)O2)c1 (stereo partly drawn)
- SIRT5 % activated (at 160 μM test compound): 50% activated at 160 μM

SMILES: NC(=O)c1ccc[n+]([C@@H]2O[C@H](CO)C(O)C2(F)F)c1 (stereo partly drawn)
- SIRT5 % activated (at 2.4 mM test compound): 90% activated at 2.4 mM

SMILES: O=C(O)c1ccc[n+]([C@@H]2O[C@H](CO)C(O)C2O)c1 (stereo partly drawn)
- SIRT5 % activated (at 800 μM test compound): 60% activated at 800 μM

SMILES: NC(=O)c1ccc[n+]([C@@H]2O[C@H](CO)C(O)C2O)c1 (stereo partly drawn)
- SIRT5 % activated (at 800 μM test compound): 100% activated at 800 μM

SMILES: CCOC(=O)c1ccc[n+]([C@@H]2O[C@H](CO)C(O)C2O)c1 (stereo partly drawn)
- SIRT5 % activated (at 600 μM test compound): 40% activated at 600 μM

SMILES: COC(=O)c1ccc[n+]([C@@H]2O[C@H](CO)C(O)C2O)c1 (stereo partly drawn)
- SIRT5 % activated (at 600 μM test compound): 80% activated at 600 μM

SMILES: NC(=O)c1ccc[n+]([C@@H]2O[C@H](CO)C(O)C2Cl)c1 (stereo partly drawn)
- SIRT5 % activated (at 1 mM test compound): 75% activated at 1 mM

SMILES: NC(=O)c1ccc[n+]([C@@H]2O[C@H](CO)[C@@H](O)[C@H]2O)c1 [NR, nicotinamide riboside]
- Emax (FIG. 3, varying concentrations of activator, 500 μM NAD+, 500 μM JB12, DEAE columns, read-out: max activation of SIRT5 deacetylation): 200%

SMILES: O=C([O-])c1ccc[n+]([C@@H]2O[C@H](CO)[C@@H](O)[C@H]2O)c1 [NaR, nicotinic acid riboside]
- max activation of SIRT5 deacetylation [1]: 160%
- Km [2]: 821 µM

SMILES: CCOC(=O)c1ccc[n+]([C@@H]2O[C@H](CO)[C@@H](O)[C@H]2O)c1 [O-ethyl NR, ethyl nicotinate riboside]
- max activation of SIRT5 deacetylation [1]: 150%
- Km [2]: 323 µM

SMILES: COC(=O)c1ccc[n+]([C@@H]2O[C@H](CO)[C@@H](O)[C@H]2O)c1 [O-methyl NR, methyl nicotinate riboside]
- max activation of SIRT5 deacetylation [1]: 190%
- Km [2]: 93 µM

SMILES: NC(=O)c1ccc[n+](C2O[C@H](CO)[C@@H](O)C2(F)F)c1 (stereo partly drawn) [gem-diF-NR, 1-(2′-deoxy-2′,2′-difluoro-ribofuranosyl)-nicotinamide]
- max activation of SIRT5 deacetylation [3]: 120%
- Km [4]: 50 µM

SMILES: NC(=O)c1ccc[n+](C2O[C@H](CO)[C@@H](O)[C@H]2Cl)c1 (stereo partly drawn) [ribo-Cl-NR, 1-(2′-deoxy-2′-chloro-ribofuranosyl)-nicotinamide]
- max activation of SIRT5 deacetylation [3]: 125%
- Km [4]: 95 µM
